Experimental data as given in publication PMC11492916 (OncoTargets and Therapy, 2024).
Several values for one entry are separate records, joined by “and”; a condition that tells them apart may be missing. Equal entries are not always repeated.

How the values were obtained:
HeLa = assay: MTT cytotoxicity assay, HeLa cervical cancer cells; format: cell-based; details: Homo sapiens, 48 h, read-out: IC50, cytotoxic activity against HeLa
T47D = assay: MTT cytotoxicity assay, T47D breast cancer cells; format: cell-based; details: Homo sapiens, 48 h, read-out: IC50, cytotoxic activity against T47D

COc1cccc2c1C(=O)c1c(O)c3c(c(O)c1C2=O)C[C@@](O)(C(=O)CO)C[C@@H]3O[C@H]1C[C@H](N)[C@H](O)[C@H](C)O1 [DOX, doxorubicin] was tested, and the IC50 (HeLa) was 3.38 µg/mL and 6.22 µM and the IC50 (T47D) was 0.17 µg/mL and 310 nM.
